Drawing on patent US9249102B2 (priority 2012, dated 2016), this text covers inhibition and EC50 for 28 compounds.

The first experiment deals with Haemonchus contortus. Nature of the experiment: Method A: Haemonchus contortus L1 larvae, microtitre plate screen. The conditions noted are these: 96 h, read-out: motility inhibition.
Usually inhibition stands for the relative decrease from the control value, in per cent. As to `O=C(CO[C@H]1CC[C@H](Nc2ccc([N+](=O)[O-])c(C(F)(F)F)c2)CC1)N1CC2CCC1CN2CC1Cc2cc(F)ccc2O1` (stereo partly shown) [Compound 309, 1-[5-(5-fluoro-2,3-dihydro-benzofuran-2-ylmethyl)-2,5-diaza-bicyclo[2.2.2]oct-2-yl]-2-[4-(4-nitro-3-trifluoromethyl-phenylamino)-cyclohexyloxy]-ethanone], the inhibition at 5 µg/mL is ≥ 90%. On the same count and under the same terms, as for `CN(c1ccc([N+](=O)[O-])c(C(F)(F)F)c1)[C@H]1CC[C@H](OCC(=O)N2CCN(Cc3cc4cc(Cl)ccc4o3)CC2)CC1` [Compound 275, 2-[(4-[methyl[4-nitro-3-(trifluoromethyl)phenyl]amino]cyclohexyl)-oxy]1-[4-(5-chlorobenzofuran-2-ylmethyl)piperazin-1-yl]ethan-1-one], the figure is ≥ 90%; as for `O=C(NCCOc1ccc(Nc2ccc([N+](=O)[O-])c(C(F)(F)F)c2)cc1)C(=O)NCC1Cc2cc(C(F)(F)F)ccc2O1` (stereo not shown) [Compound 227, N^1-(2-(4-(4-nitro-3-(trifluoromethyl)phenylamino)phenoxy)ethyl)-N^2-((5-(trifluoromethyl)-2,3-dihydrobenzofuran-2-yl)methyl)ethanediamide], ≥ 90%; as for `N#Cc1ccc(N[C@H]2CC[C@H](OCC(=O)N3CCN(Cc4oc5ccc(Cl)cc5c4Cl)CC3)CC2)cc1C(F)(F)F` [Compound 315, 4-(4-{2-[4-(3,5-dichloro-benzofuran-2-ylmethyl)-piperazin-1-yl]-2-oxo-ethoxy}-cyclohexylamino)-2-trifluoromethyl-benzonitrile], ≥ 90%.

`C[C@@H]1CN(C(=O)CO[C@H]2CC[C@H](Nc3ccc([N+](=O)[O-])c(C(F)(F)F)c3)CC2)C[C@H](C)N1Cc1ccc2cc(C(F)(F)F)ccc2c1` [Compound 374, 1-[(3S,5R)-3,5-dimethyl-4-(6-trifluoromethyl-naphthalen-2-ylmethyl)-piperazin-1-yl]-2-[4-(4-nitro-3-trifluoromethyl-phenylamino)-cyclohexyloxy]-ethanone]: the inhibition at 5 µg/mL is ≥ 90%.

For the compound `O=C(NCCO[C@H]1CC[C@H](Nc2ccc([N+](=O)[O-])c(C(F)(F)F)c2)CC1)C(=O)Nc1ccc2cc(F)ccc2n1` [Compound 239, N^1-(6-fluoroquinolin-2-yl)-N^2-(2-(-4-(4-nitro-3-(trifluoromethyl)phenylamino)cyclohexyloxy)ethyl)oxalamide], the inhibition at 5 µg/mL is ≥ 90%. For the compound `O=C(NCCO[C@H]1CC[C@H](Nc2ccc([N+](=O)[O-])c(C(F)(F)F)c2)CC1)C(=O)Nc1ccc2cc(Cl)ccc2n1` [Compound 241, N^1-(6-chloroquinolin-2-yl)-N^2-(2-(-4-(4-nitro-3-(trifluoromethyl)phenylamino)cyclohexyloxy)ethyl)oxalamide], the inhibition at 5 µg/mL is ≥ 90%. Turning to `C[C@@H]([C@@H]1Cc2cc(F)ccc2O1)N1CCN(C(=O)COC2CCC(Nc3ccc([N+](=O)[O-])c(C(F)(F)F)c3)CC2)CC1` (relative stereo) [Compound 260-10, 1-(4-((S)-1-((S)-5-fluoro-2,3-dihydrobenzofuran-2-yl)ethyl)piperazin-1-yl)-2-(4-(4-nitro-3-(trifluoromethyl)phenylamino)cyclohexyloxy)ethanone], the inhibition at 5 µg/mL was ≥ 90%. Turning to `O=C(NCCO[C@H]1CC[C@H](Nc2ccc([N+](=O)[O-])c(C(F)(F)F)c2)CC1)C(=O)Nc1ccc2ccccc2c1` [Compound 75, N-(naphthalen-2-yl)-N-[2-[(4-[[4-nitro-3-(trifluoromethyl)phenyl]amino]cyclohexyl)oxy]ethyl]ethanediamide], the inhibition at 5 µg/mL was ≥ 90%. Regarding `CC1(CN2CCN(C(=O)CO[C@H]3CC[C@H](Nc4ccc([N+](=O)[O-])c(C(F)(F)F)c4)CC3)CC2)Cc2cc(F)ccc2O1` (stereo partly shown) [Compound 377, 1-[4-[(5-fluoro-2-methyl-3H-benzofuran-2-yl)methyl]piperazin-1-yl]-2-[4-[4-nitro-3-(trifluoromethyl)anilino]cyclohexoxy]ethanone], the inhibition at 5 µg/mL is ≥ 90%.

A further experiment concerns microfilaria of Dirofilaria immitis. Put plainly: Method F: microfilaria of Dirofilaria immitis, survival at 24 hours.
Conditions: not given
As a reminder, the EC50 is the concentration giving half of the maximal effect. A low value points to an effect from little substance. As for `O=C(CO[C@H]1CC[C@H](Nc2ccc([N+](=O)[O-])c(C(F)(F)F)c2)CC1)N1CCc2cc(Cl)ccc2C1` [Compound 195, 1-(6-chloro-1,2,3,4-tetrahydroisoquinolin-2-yl)-2-[[4-[[4-nitro-3-(trifluoromethyl)phenyl]amino]cyclohexyl]oxy]ethan-1-one], the EC50 is < 1 µg/mL.

The experiment is the same for the next values; noted with them: survival of microfilaria at 24 hours.
For `O=C(CO[C@H]1CC[C@H](Nc2ccc([N+](=O)[O-])c(C(F)(F)F)c2)CC1)N1CC2CCC1CN2CC1Cc2cc(F)ccc2O1` (stereo partly shown) [Compound 309, 1-[5-(5-fluoro-2,3-dihydro-benzofuran-2-ylmethyl)-2,5-diaza-bicyclo[2.2.2]oct-2-yl]-2-[4-(4-nitro-3-trifluoromethyl-phenylamino)-cyclohexyloxy]-ethanone], the EC50 was < 0.1 µg/mL.

On to `CN(c1ccc([N+](=O)[O-])c(C(F)(F)F)c1)[C@H]1CC[C@H](OCC(=O)N2CCN(Cc3cc4cc(Cl)ccc4o3)CC2)CC1` [Compound 275, 2-[(4-[methyl[4-nitro-3-(trifluoromethyl)phenyl]amino]cyclohexyl)-oxy]1-[4-(5-chlorobenzofuran-2-ylmethyl)piperazin-1-yl]ethan-1-one], for which the EC50 was < 1 µg/mL. As for `O=C(NCCOc1ccc(Nc2ccc([N+](=O)[O-])c(C(F)(F)F)c2)cc1)C(=O)NCC1Cc2cc(C(F)(F)F)ccc2O1` (stereo not shown) [Compound 227, N^1-(2-(4-(4-nitro-3-(trifluoromethyl)phenylamino)phenoxy)ethyl)-N^2-((5-(trifluoromethyl)-2,3-dihydrobenzofuran-2-yl)methyl)ethanediamide], the EC50 is < 1 µg/mL. For the compound `O=C(CO[C@H]1CC[C@H](Nc2ccc([N+](=O)[O-])c(C(F)(F)F)c2)CC1)N1CCc2cc(F)ccc2C1` [Compound 193, 1-(6-fluoro-1,2,3,4-tetrahydroisoquinolin-2-yl)-2-[[4-[[4-nitro-3-(trifluoromethyl)phenyl]amino]cyclohexyl]oxy]ethan-1-one], the EC50 was < 1 µg/mL. Turning to `O=C(CO[C@H]1CC[C@H](Nc2ccc([N+](=O)[O-])c(C(F)(F)F)c2)CC1)N1CCc2ccccc2C1` [Compound 192, 2-[[4-[[4-nitro-3-(trifluoromethyl)phenyl]amino]cyclohexyl]oxy]-1-(1,2,3,4-tetrahydroisoquinolin-2-yl)ethan-1-one], the EC50 was < 1 µg/mL. In the case of `O=C(CO[C@H]1CC[C@H](Nc2ccc([N+](=O)[O-])c(C(F)(F)F)c2)CC1)Nc1ccc2cc(C(F)(F)F)ccc2n1` [Compound 210, 2-[[4-[[4-nitro-3-(trifluoromethyl)phenyl]amino]cyclohexyl]oxy]-N-[6-(trifluoromethyl)quino-lin-2-yl]acetamide], the EC50 was < 1 µg/mL. In the case of `O=C(COc1ccc2ccc([N+](=O)[O-])c(C(F)(F)F)c2c1)N1CCN(c2ccc(Cl)cn2)CC1` [Compound 114, 1-[4-(5-chloropyridin-2-yl)piperazin-1-yl]-2-[[7-nitro-8-(trifluoromethyl)naphthalen-2-yl]oxy]ethan-1-one], the EC50 is < 5 µg/mL. Still for that read-out and setting: then `Cc1cc(N2CCN(CC(C)C(=O)N3CCC(Nc4ccc([N+](=O)[O-])c(C(F)(F)F)c4)CC3)CC2)nc2ccccc12` (stereo not shown) [Compound 101, 2-methyl-3-[4-(4-methylquinolin-2-yl)piperazin-1-yl]-1-(4-[[4-nitro-3-(trifluoromethyl)phenyl]amino]piperidin-1-yl)propan-1-one], with < 1 µg/mL; and `Cc1cc(N2CCN(CC(C)C(=O)N3CCC(Nc4ccc([N+](=O)[O-])c(C(F)(F)F)c4)CC3)CC2)nc2ccc(F)cc12` (stereo not shown) [Compound 102, 3-[4-(6-fluoro-4-methylquinolin-2-yl)piperazin-1-yl]-2-methyl-1-(4-[[4-nitro-3-(trifluoromethyl)phenyl]amino]piperidin-1-yl)propan-1-one], with < 1 µg/mL. On the same count and under the same terms, as for `N#Cc1ccc(NC2CCN(C(=O)CCCN3CCN(c4ccc5ccccc5c4)CC3)CC2)cc1C(F)(F)F` [Compound 15, 4-[(1-[4-[4-(naphthalen-2-yl)piperazin-1-yl]butanoyl]piperidin-4-yl)amino]-2-(trifluoromethyl)benzonitrile], the figure is < 5 µg/mL; as for `O=C(CO[C@H]1CC[C@H](Nc2ccc([N+](=O)[O-])c(C(F)(F)F)c2)CC1)N1CCN(c2cccc3ccccc23)CC1` [Compound 20, 1-[4-(naphthalen-1-yl)piperazin-1-yl]-2-[(4-[[4-nitro-3-(trifluoromethyl)phenyl]amino]cyclohexyl)oxy]ethan-1-one], < 1 µg/mL. As to `O=C(CO[C@H]1CC[C@H](Nc2ccc([N+](=O)[O-])c(C(F)(F)F)c2)CC1)N1CCN(c2ccnc3ccccc23)CC1` [Compound 160, 2-[(4-[[4-nitro-3-(trifluoromethyl)phenyl]amino]cyclohexyl)oxy]-1-[4-(quinolin-4-yl)piperazin-1-yl]ethan-1-one], the EC50 is < 5 µg/mL. Regarding `N#Cc1ccc(NC2CCN(C(=O)CCCN3CCN(c4ccc5ccccc5n4)CC3)CC2)cc1C(F)(F)F` [Compound 94, 4-[(1-[4-[4-(quinolin-2-yl)piperazin-1-yl]butanoyl]piperidin-4-yl)amino]-2-(trifluoromethyl)benzonitrile], the EC50 was < 5 µg/mL. As for `O=C(NCCOc1ccc(Nc2ccc([N+](=O)[O-])c(C(F)(F)F)c2)cc1)C(=O)NCc1cc2cc(Cl)ccc2o1` [Compound 230, N^1-((5-chlorobenzofuran-2-yl)methyl)-N^2-(2-(4-(4-nitro-3-(trifluoromethyl)phenylamino)phenoxy)ethyl)oxalamide], the EC50 is < 5 µg/mL. The same measure, in the same setting: then `CC(CN1CCN(c2cccc3ccccc23)CC1)C(=O)N1CCC(Nc2ccc([N+](=O)[O-])c(C(F)(F)F)c2)CC1` (stereo not shown) [Compound 19, 2-methyl-3-(4-naphthalen-1-yl-piperazin-1-yl)-1-[4-(4-nitro-3-trifluoromethyl-phenylamino)-piperidin-1-yl]-propan-1-one], with < 1 µg/mL; and `O=C(CO[C@H]1CC[C@H](Nc2ccc([N+](=O)[O-])c(C(F)(F)F)c2)CC1)N1CCN(c2ccc(Cl)c3ccccc23)CC1` [Compound 161, 1-[4-(4-chloronaphthalen-1-yl)piperazin-1-yl]-2-[(4-[[4-nitro-3-(trifluoromethyl)phenyl]amino]cyclohe-xyl)oxy]ethan-1-one], with < 5 µg/mL. On the same count and under the same terms, then `O=C(NCCOc1ccc(Nc2ccc([N+](=O)[O-])c(C(F)(F)F)c2)cc1)C(=O)NCc1cc2cc(C(F)(F)F)ccc2o1` [Compound 231], with < 5 µg/mL. In the case of `O=C(NCCOc1ccc(Nc2ccc([N+](=O)[O-])c(C(F)(F)F)c2)cc1)C(=O)NCc1cc2cc(F)ccc2o1` [Compound 229, N^1-((5-fluorobenzofuran-2-yl)methyl)-N^2-(2-(4-(4-nitro-3-(trifluoromethyl)phenylamino)phenoxy)ethyl)oxalamide], the EC50 was < 1 µg/mL. The same measure, in the same setting: then `CN(C(=O)C(=O)NCCO[C@H]1CC[C@H](Nc2ccc([N+](=O)[O-])c(C(F)(F)F)c2)CC1)c1ccc2cc(F)ccc2n1` [Compound 242], with < 1 µg/mL. For `N#Cc1ccc(NC2CCN(C(=O)CCCN3CCN(c4ccc5cc(C(F)(F)F)ccc5n4)CC3)CC2)cc1C(F)(F)F` [Compound 95, 2-(trifluoromethyl)-4-[[1-(4-[4-[6-(trifluoromethyl)quinolin-2-yl]piperazin-1-yl]butanoyl)piperidin-4-yl]amino]benzonitrile], the EC50 is < 5 µg/mL.
